# *1 amine or outer side, *2 acyl side, *3 side chain or, on linkers, in order; H or OH if unused. Where a SMILES comes first, the peptide text is derived from it. [ ]: non-standard residue; d: D form. The star is where a group is joined. Nle(5E-ene,6-CO2Et) = CCOC(=O)/C=C/CC[C@H](N)C(=O)O; X7 = O=C(/C=C/CC[C@H](N[*:1])C(=O)[*:2])OCc1ccccc1; Tic = O=C(O)[C@@H]1Cc2ccccc2CN1; Cbz = O=C(OCc1ccccc1)*
# Target: T1, recombinant human tissue transglutaminase (His6-rh-TG2) (Homo sapiens, UniProt P21980)
# T1 sequence (P21980 1-687): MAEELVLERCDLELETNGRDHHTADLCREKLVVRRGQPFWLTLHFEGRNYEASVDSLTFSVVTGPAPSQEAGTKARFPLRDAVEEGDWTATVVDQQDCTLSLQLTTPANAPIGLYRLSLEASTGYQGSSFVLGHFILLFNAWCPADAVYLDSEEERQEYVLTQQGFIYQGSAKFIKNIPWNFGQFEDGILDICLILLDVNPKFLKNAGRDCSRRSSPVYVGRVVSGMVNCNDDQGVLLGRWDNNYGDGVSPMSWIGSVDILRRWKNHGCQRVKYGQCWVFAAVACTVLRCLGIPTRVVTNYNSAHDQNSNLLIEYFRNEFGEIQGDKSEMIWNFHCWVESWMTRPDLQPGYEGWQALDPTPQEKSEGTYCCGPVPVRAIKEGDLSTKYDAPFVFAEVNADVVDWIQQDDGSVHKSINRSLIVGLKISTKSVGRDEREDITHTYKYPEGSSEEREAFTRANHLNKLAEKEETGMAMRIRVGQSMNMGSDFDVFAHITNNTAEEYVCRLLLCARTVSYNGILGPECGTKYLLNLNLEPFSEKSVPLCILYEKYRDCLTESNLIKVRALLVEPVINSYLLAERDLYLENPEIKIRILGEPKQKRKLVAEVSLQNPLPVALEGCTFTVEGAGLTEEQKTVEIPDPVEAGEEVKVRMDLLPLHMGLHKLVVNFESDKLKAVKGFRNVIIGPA
# Test: Inactivation of human tissue transglutaminase, fluorescence assay, IC50
# Format: biochemical
# Conditions: Table 1; 5 min preincubation, 37° C.
# Experimental: 250 μg of lyophilized his-tagged recombinant human tissue transglutaminase (His6-rh-TG2) are reconstituted by the addition of 150 μl of water (resulting buffer 50 mM of NaH2PO4, 150 mM of NaCl, pH=8).
# A 10 mM inhibitor stock solution in DMSO is prepared and diluted with buffer (50 mM of Tris-HCl, 10 mM of CaCl2, 5 mM of DTT, pH=7.5, respectively) to the 20-fold of the concentration desired for the inhibition mixture (at least 1/50 dilution resulting in 2% DMSO concentration).
# 900 μl of an assay solution composed of 55.56 mM of Tris, 11.11 mM of CaCl2, 0.11% PEG8000, 5.56 mM of DTT, 5.56 mM of glycine methyl ester and 50 μM of Abz-APE(CAD-DNP)QEA-OH, (patent number:), pH=7.5 are placed in a cuvette and brought to a temperature of 37° C. in the measuring cell of a spectrophotometer. 50 μl of the respective inhibitor solution are added to said solution (resulting in a concentration of less than 0.2% of DMSO in the mixture).
# 7 μl of the transglutaminase solution reconstituted above are diluted with 51 μl of buffer (50 mM of Tris, 100 mM of NaCl, 5 mM of DTT, pH=7.5). 50 μl of said enzyme solution (10 μg His6-rhTG2) are added to the assay solution containing the respective inhibitor concentration. The mixture is incubated for 5 min at 37° C. before the measurement is performed. λexc=313 nm and λem=418 nm, 15 min)
# The resulting enzyme activity was measured by analyzing the slope of the straight line obtained by the increase in fluorescence.
# DMSO is used instead of inhibitor stock solution in order to determine the non-inhibited enzyme activity. IC50 values are determined by plotting the resulting enzyme activity against the logarithm of the inhibitor concentration. IC50 is defined as the concentration of an inhibitor at which enzyme activity is reduced to 50% after 5 min of preincubation.
row,Compound,IC50
1,"CCOC(=O)/C=C/CC[C@H](NC(=O)OCc1ccccc1)C(=O)N[C@@H](CCC(N)=O)C(=O)N1CCC[C@H]1C(=O)N[C@@H](CC(C)C)C(=O)OC [Compound 20, N^α-benzyloxycarbonyl-{[(E)-(L)-6-amino-hept-2-ene-dicarboxylic acid]-1-ethanoyl}-L-glutaminyl-L-prolinyl-L-leucine methyl ester] (Cbz-[Nle(5E-ene,6-CO2Et)]QPL-OMe)",2000 nM
2,[(E)-(L)-6-(2-oxo-pyrrolidon-1-yl)-hept-2-ene-dicarboxylic acid-1-ethanoyl]-L-cyclohexylglycinyl-L-homoprolinyl-L-leucine methyl ester [Compound 17],35000 nM
3,"CCOC(=O)/C=C/CC[C@H](NC(=O)OCc1ccccc1)C(=O)N[C@@H](CCC(N)=O)C(=O)N1CCC[C@H]1C(=O)N[C@@H](Cc1ccc(O)cc1)C(=O)OC [Compound 19, N^α-benzyloxycarbonyl-{[(E)-(L)-6-amino-hept-2-ene-dicarboxylic acid]-1-ethanoyl}-L-glutaminyl-L-proline-L-tyrosine methyl ester] (Cbz-[Nle(5E-ene,6-CO2Et)]QPY-OMe)",2400 nM
4,"CCOC(=O)C=CC(=O)CC[C@H](NC(=O)OCc1ccccc1)C(=O)N[C@H](C(=O)N1CCC[C@H]1C(=O)N[C@@H](CC(C)C)C(=O)OC)C(C)C [Compound 9, N^α-benzyloxycarbonyl-{[L-7-amino-4-oxo-oct-2-ene-dicarboxylic acid]-1-ethanoyl}-L-valinyl-L-prolinyl-leucine methyl ester]",18000 nM
5,[(E)-(L)-6-(2-oxo-pyrrolidon-1-yl)-hept-2-ene-dicarboxylic acid-1-ethanoyl]-L-cyclohexylglycinyl-L-prolinyl-L-leucine methyl ester [Compound 18],28000 nM
6,N^α-acetyl-{[(E)-(L)-6-Amino-hept-2-ene dicarboxylic acid]-1-methanoyl}-L-phenylalaninyl-L-prolinyl-L-leucine methyl ester [Compound 12],1800 nM
7,"COC(=O)/C=C/CC[C@H](NC(=O)OCc1ccccc1)C(=O)N[C@@H](Cc1ccccc1)C(=O)N1CCC[C@H]1C(=O)N[C@@H](CC(C)C)C(=O)OC [Compound 13, N^α-benzyloxycarbonyl-{[(E)-(L)-6-amino-hept-2-enedicarboxylic acid]-1-methanoyl}-L-phenylalaninyl-L-prolinyl-L-leucine methyl ester]",1500 nM
8,[(E)-(L)-6-(2-Oxo-pyrrolidon-1-yl)hept-2-ene-dicarboxylic acid 1-ethanoyl]-L-valinyl-L-homoprolinyl-L-leucine methyl ester [Compound 16],22000 nM
9,N^α-(2-fluorobenzoyl)-{[L-7-amino-4-oxo-oct-2-ene-dicarboxylic acid]-1-methanoyl}-L-valinyl-L-4-fluoroprolinyl-leucine isopropyl ester [Compound 24],8000 nM
10,CC(=O)NCCC(=O)N1CCCC(C(=O)C(CC/C=C/C(=O)OC(C)C)N2Cc3nc[nH]c3CC2C(=O)NC(CNC(N)=O)C(=O)NC(CC(C)C)C(=O)N2CCCC2C(=O)NC(Cc2ccc(Oc3ccc(O)cc3)cc2)C(=O)O)C1 (centres unmarked) [Compound 42],4000 nM
11,N^α-benzyloxycarbonyl-{[(E)-(L)-6-amino-hept-2-ene-dicarboxylic acid]-1-ethanoyl}-L-leucinyl-L-prolinyl-L-glutamine methyl ester [Compound 21],3200 nM

# Now from value to compound:
row,IC50,Compound
1,56 nM,N^α-(5-methylisoxazol-3-carbonyl)-{[L-7-amino-4-oxo-oct-2-ene-dicarboxylic acid]-1-isopropanoyl}-L-valinyl-L-prolinyl-leucine methyl ester [Compound 23]
2,70 nM,"CCOC(=O)C=CC(=O)CC[C@H](NC(C)=O)C(=O)N[C@@H](CCC(N)=O)C(=O)N1CCC[C@H]1C(=O)N[C@@H](CC(C)C)C(=O)OC [Compound 22, N^α-acetyl-{[L-7-Amino-4-oxo-oct-2-ene-dicarboxylic acid]-1-ethanoyl}-L-glutaminyl-L-prolinyl-L-leucine methyl ester]"
3,2100 nM,"COC(=O)/C=C/CC[C@H](NC(C)=O)C(=O)N[C@@H](CCC(N)=O)C(=O)N[C@@H](CCC(=O)O)C(=O)OC [Compound 11, N^α-acetyl-{[(E)-(L)-6-amino-hept-2-ene-dicarboxylic acid]-1-methanoyl}-L-glutaminyl-L-glutamyl methyl ester]"
4,215 nM,COC(=O)[C@H](CC(C)C)NC(=O)[C@@H]1Cc2ccccc2CN1C(=O)[C@H](CCC(N)=O)NC(=O)[C@H](CC/C=C/C(=O)OCc1ccccc1)NC(=O)[C@@H]1CCCN1C(=O)[C@H](CCC(N)=O)NC(=O)[C@@H]1CCCN1C(=O)OCc1ccccc1 [Compound 41] (Cbz-PQP[X7]Q[Tic]L-OMe)
5,330 nM,"COC(=O)/C=C/CC[C@H](NC(C)=O)C(=O)N[C@@H](CCC(N)=O)C(=O)N[C@@H](CCC(=O)O)C(=O)N[C@@H](C)C(=O)OC [Compound 10, N^α-Acetyl-{[(E)-(L)-6-amino-hept-2-ene-dicarboxylic acid]-1-methanoyl}-L-glutaminyl-L-glutamyl-L-alanine methyl ester]"
6,880 nM,"COC(=O)/C=C/CC[C@H](NC(=O)OCc1ccccc1)C(=O)N[C@@H](Cc1ccc(F)cc1)C(=O)N1CCC[C@H]1C(=O)N[C@@H](CC(C)C)C(=O)OC [Compound 15, N^α-benzyloxycarbonyl-{[(E)-(L)-6-amino-hept-2-ene-dicarboxylic acid]-1-methanoyl}-L-(p-fluoro)-phenylalaninyl-L-prolinyl-L-leucine methyl ester]"
7,1100 nM,"COC(=O)/C=C/CC[C@H](NC(C)=O)C(=O)N[C@@H](Cc1ccc(F)cc1)C(=O)N1CCC[C@H]1C(=O)N[C@@H](CC(C)C)C(=O)OC [Compound 14, N^α-acetyl-{[(E)-(L)-6-amino-hept-2-ene-dicarboxylic acid]-1-methanoyl}-L-(p-fluoro)-phenylalaninyl-L-prolinyl-L-leucine methyl ester]"

# Same assay, conditions: Table 2; 5 min preincubation, 37° C.
row,IC50,Compound
1,43000 nM,"COC(=O)C(CC(C)C)NC(=O)C1CCCN1C(=O)C(CCC(N)=O)NC(=O)C(CCC=CC#N)NC(=O)OCc1ccccc1 [Compound 3.2.11, N^α-benzyloxycarbonyl)-[(Z)-(L)-2-amino-6-cyano-hex-5-ene-dicarboxylic acid]-L-glutaminyl-L-prolinyl-L-leucine methyl ester]"
2,56000 nM,N^α-benzyloxycarbonyl)-[(Z)-(L)-2-amino-7-oxo-oct-5-ene-dicarboxylic acid]-L-glutaminyl-L-prolinyl-L-leucine methyl ester [Compound 3.2.10]
